Measured values reported in patent US20160031817A1, “3-PIPERIDONE COMPOUNDS AND THEIR USE AS NEUROKININ-1 (NK1) RECEPTOR ANTAGONISTS” (NANYANG TECHNOLOGICAL UNIVERSITY, priority 2013, published 2016).

Q: For Oc1ccc(OC(F)(F)F)cc1C1COC2(CCCNC2c2ccccc2)C1 (racemic) [rac-3, rac-2-(6-phenyl-1-oxa-7-azaspiro[4.5]decan-3-yl)-4-(trifluoromethoxy)phenol], which melting point is on record?
A: Its melting point is 203 to 204 °C (dec.).
